The target of one test is T1, 5‐lipoxygenase (5‐LOX) (Homo sapiens, UniProt P09917).
T1 construct: made in house; host or cells: E. coli BL21 (DE3)
T1 sequence (P09917 1-674): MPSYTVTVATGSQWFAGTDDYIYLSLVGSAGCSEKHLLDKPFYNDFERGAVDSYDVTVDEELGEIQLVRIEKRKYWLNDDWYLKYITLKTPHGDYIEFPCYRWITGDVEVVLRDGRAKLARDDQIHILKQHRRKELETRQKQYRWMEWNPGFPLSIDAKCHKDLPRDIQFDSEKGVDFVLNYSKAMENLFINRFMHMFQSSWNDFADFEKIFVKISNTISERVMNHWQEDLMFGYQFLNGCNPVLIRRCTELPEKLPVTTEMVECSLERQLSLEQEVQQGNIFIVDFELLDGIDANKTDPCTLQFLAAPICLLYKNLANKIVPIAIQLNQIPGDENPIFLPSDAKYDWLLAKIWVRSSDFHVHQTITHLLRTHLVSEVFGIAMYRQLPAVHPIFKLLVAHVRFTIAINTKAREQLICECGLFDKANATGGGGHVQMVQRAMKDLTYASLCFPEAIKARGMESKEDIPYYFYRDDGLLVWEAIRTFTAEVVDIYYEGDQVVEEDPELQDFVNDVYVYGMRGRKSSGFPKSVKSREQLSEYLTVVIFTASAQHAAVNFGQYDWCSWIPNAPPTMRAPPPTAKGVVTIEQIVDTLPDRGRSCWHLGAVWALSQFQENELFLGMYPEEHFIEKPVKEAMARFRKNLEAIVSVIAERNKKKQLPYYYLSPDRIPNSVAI
Kind of test: 5-LOX activity assay (HPLC detection of product formation). Conditions: for 5‐LOX LE: ligand efficiency calculated from IC50; for IC50: mean±standard deviation of three independent experiments. Format: biochemical. As for the experimental part: (§1) For hit validation, we employed secondary assays with orthogonal readouts to confirm fragment activities. Biochemical activity assays were chosen for the enzymes sEH, LTA4H, and 5‐LOX. […] RXRα and FXR modulation was assessed in cell‐based hybrid reporter gene assays. All ten compounds were tested at a single concentration of 500 μM in the sEH and LTA4H activity assays and with a concentration of 100 μM on 5‐LOX, RXRα, and FXR. Fragments showing an inhibition greater than 50 % (sEH‐H and LTA4H) or greater than 70 % (5‐LOX) as well as the hits determined in the DSF experiments were further characterized in full concentration‐response curves between 0.1 and 1000 μM. […] As alternative cell‐free assay we employed isothermal titration calorimetry (ITC) to determine binding affinity of the fragments towards the LBDs of both nuclear receptors. ITC was performed with a protein concentration of 50 μM and compound concentrations of 250 μM.
(§2) The 10 fragments showing dual activity in the DSF experiments were validated by functional assay screening with a fixed concentration of 500 µM in case of sEH-H and LTA4H, 100 µM in case of 5-LOX and 30 µM, 10 µM and 5 µM in case of FXR and […]
(§3) % (5-LOX) as well as the hits determined in the DSF experiments were further measured with concentrations between 1000 µM and 0.1 µM (sEH-H and LTA4H) and between 300 µM and 1 µM (5-LOX). The sEH and LTA4H activity assays were performed as triplicate and repeated 3 times. The 5-LOX activity assay was performed with one point per concentration and repeated 3 times Raw data was first analyzed in Microsoft Office Excel (2013), before IC50 curves were plotted and further analyzed using GraphPad Prism 7 and GraphPad Prism 8 for the shown graphs .
The eight approved drugs were measured in the orthogonal assay systems analogous to the fragments. […]
For the 5-LOX they […]
were measured as single point measurement in three different experiments with concentrations between 300 µM and 1 µM. For […]
(§4) Raw data was processed according to the fragments. […]

The target in test [1] is T2, leukotriene A4 hydrolase (LTA4H) (Homo sapiens, UniProt P09960).
T2 construct: made in house; host or cells: E. coli BL21 (DE3)
T2 sequence (P09960 1-611): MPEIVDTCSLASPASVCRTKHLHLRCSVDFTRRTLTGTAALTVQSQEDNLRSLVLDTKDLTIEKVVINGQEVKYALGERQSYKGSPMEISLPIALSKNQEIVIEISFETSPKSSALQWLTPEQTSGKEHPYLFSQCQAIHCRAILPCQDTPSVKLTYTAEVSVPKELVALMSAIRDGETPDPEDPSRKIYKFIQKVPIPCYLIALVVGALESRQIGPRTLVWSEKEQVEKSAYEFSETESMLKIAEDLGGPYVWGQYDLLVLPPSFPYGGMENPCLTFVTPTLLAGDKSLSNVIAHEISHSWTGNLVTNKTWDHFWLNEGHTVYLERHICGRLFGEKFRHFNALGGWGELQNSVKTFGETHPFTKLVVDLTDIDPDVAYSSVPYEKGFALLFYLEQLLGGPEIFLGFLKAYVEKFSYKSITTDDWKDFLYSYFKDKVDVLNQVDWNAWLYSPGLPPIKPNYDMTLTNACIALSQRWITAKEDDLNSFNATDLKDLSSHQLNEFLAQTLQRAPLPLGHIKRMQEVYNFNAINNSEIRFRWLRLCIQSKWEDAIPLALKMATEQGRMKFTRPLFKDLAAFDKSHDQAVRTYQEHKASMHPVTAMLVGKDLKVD
Kind of test: LTA4H activity assay (fluorogenic substrate Arg-AMC). Format: biochemical. The following applies: for LTA4H LE: ligand efficiency calculated from IC50; for IC50: mean±standard deviation of three independent experiments. As for the experimental part: as §1, §2, §3
The eight approved drugs were measured in the orthogonal assay systems analogous to the fragments. The approved drugs were […]
For the sEH-H and LTA4H, they were measured as triplicate in concentrations between 1000 µM and 1 µM and each measurement was repeated three times. […]
as §4
The LTA4H activity assay was performed adapted from Hiesinger et al.3.As in the sEH-H measurement 1 µl of compound dilution in DMSO or pure DMSO (for the positive and negative control) was placed in a black 96-well plate (Thermo Scientific™ Nunc™ F96 MicroWell™ Black Polystyrene Plate) and then 89 µl of protein-mix or buffer mix (without protein as negative control) were added and incubated for 30 min at room temperature.

The structures appear in SMILES notation.

Consider `Cc1cc(=O)n(-c2ccc(C)c(C)c2)[nH]1` [Compound 2], for which, on 5‐lipoxygenase (5‐LOX), the “5‐LOX LE” value is 0.42 kcal/mol and the IC50 amounted to 21.2 ± 7.3 µM.
Consider `CCCCOc1cc(C(=O)OC)ccc1N` [Compound 3], for which, in test [1], the “LTA4H LE” value is reported as 0.39 kcal/mol and the half-inhibitory concentration (IC50) amounted to 24.6 ± 3.2 µM.
With `Oc1ccc(Cc2ccccc2)cc1` [Compound 4], the IC50 in test [1] is 3 ± 0.5 µM.
For `Oc1ccc2cc[nH]c2c1` [Compound 5], the IC50 in test [1] is over 300 µM. Besides, on 5‐lipoxygenase (5‐LOX), the “5‐LOX LE” value is given as 0.64 kcal/mol and the IC50 amounted to 19.9 ± 2.4 µM.
For the compound `CCN(Cc1ccccc1)c1ccccc1` [Compound 7], the concentration for half-maximal inhibition (IC50) in test [1] was over 300 µM; at 5‐lipoxygenase (5‐LOX), 118 ± 45.1 µM.
For the compound `Clc1ccc2c(c1)Nc1ccccc1CC2` [Compound 8], at 5‐lipoxygenase (5‐LOX), the “5‐LOX LE” value is 0.44 kcal/mol and the IC50 is 6.5 ± 2.2 µM.
`Oc1ccc(-c2ccc(F)cc2F)cc1` [Compound 9]: in test [1], the “LTA4H LE” value is recorded as 0.40 kcal/mol and the half-maximal inhibitory concentration (IC50) worked out at 36.2 ± 7.6 µM. Besides, on 5‐lipoxygenase (5‐LOX), the “5‐LOX LE” value is 0.38 kcal/mol and the half-maximal inhibitory concentration (IC50) was determined as 64.6 ± 26.4 µM.
In the case of `Fc1ccc(-c2c[nH]c3ccccc23)cc1` [Compound 10], in test [1], the “LTA4H LE” value is on record as 0.31 kcal/mol and the half-inhibitory concentration (IC50) turned out to be 255 ± 24.9 µM. Also, on 5‐lipoxygenase (5‐LOX), the “5‐LOX LE” value is 0.36 kcal/mol and the IC50 was 54.3 ± 19.7 µM.

Values taken from paper PMC8049054, “Systematic Assessment of Fragment Identification for Multitarget Drug Design” (Chemmedchem, 2021).
